The values below come from patent publication US20230119013A1, “N-CYANOPYRROLIDINES WITH ACTIVITY AS USP30 INHIBITORS” (MISSION THERAPEUTICS LIMITED, priority 2020, published 2023).

Data set [1] in a line: Plasma free fraction by equilibrium dialysis. In kind it is in vitro ADME. The note with it: mouse plasma; read-out: Binding Mouse Plasma fu, p. The text has this:
(§1) log P: partition coefficient; lipophilicity measurement. log D: distribution co-efficient; lipophilicity measurement. TPSA: topological polar surface area. Turbidimetric solubility: Test compound solution prepared in DMSO diluted into aqueous buffer. Turbidimetry is used as the end-point by measuring absorbance at 620 nm. FaSSIF: simulated intestinal fluid in fasted state measured at pH 6.5. Hep Cl mouse: in vitro hepatocyte clearance in mouse cells. Hep Cl human: in vitro hepatocyte clearance in human cells. Plasma fu,p: The free fraction of a compound in plasma preparation determined by in vitro equilibrium dialysis. It is understood that only unbound (free) compound is capable of engaging with the target. Brain fu,br: The free fraction of a compound in brain homogenate preparation determined by in vitro equilibrium dialysis. It is understood that only unbound (free) compound is capable of engaging with the target. Clu: in vitro clearance. Clu as defined here is the scaled clearance, in turn calculated from the intrinsic clearance. The intrinsic clearance is the predicted clearance due to hepatic metabolic reactions, determined from incubation of a compound in a hepatocyte preparation. […] Cl in vivo clearance: Pharmacokinetic measurement of the volume of plasma (or any matrix) from which a substance is completely removed per unit time.

A short description of the next data set: Mouse plasma stability. In kind it is in vitro ADME. The note with it: read-out: Stability Mouse plasma t1/2.
Data set [2] concerns T1, USP2, USP10, USP16, USP21, USP22, USP25, USP28.
T1 construct: DUB IC50 (μM) USP2, USP10, USP16, USP21, USP22, USP25, USP28; other: range over the seven DUBs
Put plainly: DUB IC50, seven DUBs. It counts as biochemical. The note with it: range over the seven DUBs.

Data set [3] relates to USP2, USP10, USP16, USP21, USP22, USP25, USP28. As to the kind of experiment: DUB IC50, seven DUBs. In kind it is biochemical. The note with it: range over the seven DUBs.
For another data set, the system named is hepatocyte. As to the kind of experiment: Hepatocyte clearance mouse. It counts as in vitro ADME. The note with it: mouse hepatocytes.
Text: as §1

A short description of another data set: Turbidimetric solubility. It counts as physicochemical. The note with it: aqueous buffer, kinetic from dmso stock.
Text: as §1

In another data set the target is Cathepsin K (Homo sapiens, UniProt P43235). As to the kind of experiment: Cathepsin IC50, Cathepsin K. It counts as biochemical.
Cathepsin K, sequence (P43235 115-329, species assumed): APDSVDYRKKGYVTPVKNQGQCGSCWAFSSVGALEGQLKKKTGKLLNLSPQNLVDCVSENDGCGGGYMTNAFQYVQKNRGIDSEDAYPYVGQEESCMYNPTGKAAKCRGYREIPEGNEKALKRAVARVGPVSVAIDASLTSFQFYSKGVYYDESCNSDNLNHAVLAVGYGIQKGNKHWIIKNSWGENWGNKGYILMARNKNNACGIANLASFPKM
For the next data set, the target named is T2, USP30 (Homo sapiens, UniProt Q70CQ3).
T2 construct: purchased Boston Biochem E582
T2 sequence (Q70CQ3 57-517 limits assumed): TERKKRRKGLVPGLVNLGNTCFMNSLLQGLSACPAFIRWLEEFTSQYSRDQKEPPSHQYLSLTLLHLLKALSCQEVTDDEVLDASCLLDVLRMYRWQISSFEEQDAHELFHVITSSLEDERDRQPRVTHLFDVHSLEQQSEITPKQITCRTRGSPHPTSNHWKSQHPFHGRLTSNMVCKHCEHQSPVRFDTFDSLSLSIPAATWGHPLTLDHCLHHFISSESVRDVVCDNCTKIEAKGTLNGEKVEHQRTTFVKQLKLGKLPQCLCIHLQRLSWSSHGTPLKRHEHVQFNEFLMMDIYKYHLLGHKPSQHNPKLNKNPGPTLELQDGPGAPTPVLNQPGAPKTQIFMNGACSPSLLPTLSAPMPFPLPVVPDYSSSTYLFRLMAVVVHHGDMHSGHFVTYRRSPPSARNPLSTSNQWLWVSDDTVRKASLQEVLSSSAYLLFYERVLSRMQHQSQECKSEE
As to the kind of experiment: USP30 biochemical IC50 assay (fluorescence polarisation). The note with it: for fold more potent against USP30 than Reference Example A / fold more potent against USP30 than Reference Example B / fold more potent against USP30 than Reference Example C / fold more potent against USP30 than Reference Example D: biochemical assay; for pIC50: read-out: USP30 IC50. The procedure:
Dilution plates were prepared at 21 times the final concentration (2100 μM for a final concentration of 100 μM) in 50% DMSO in a 96-well polypropylene V-bottom plate (Greiner #651201). A typical 8-point dilution series would be 100, 30, 10, 3, 1, 0.3, 0.1, 0.03 μM final. Reactions were performed in duplicate in black 384 well plates (small volume, Greiner 784076) in a final reaction volume of 21 μl. Either 1 μl of 50% DMSO or diluted compound was added to the plate. USP30 (Boston Biochem #E582) was diluted in reaction buffer (40 mM Tris, pH 7.5, 0.005% Tween 20, 0.5 mg/ml BSA, 5 mM beta-mercaptoethanol) to achieve a final assay concentration of 4 nM, and 10 μl of diluted USP30 was added to the compound. Enzyme and compound were incubated for 30 min at room temp. Reactions were initiated by the addition of 50 nM of TAMRA labelled peptide linked to ubiquitin via an iso-peptide bond as fluorescence polarisation substrate. Reactions were read immediately after addition of substrate and following a 2-hour incubation at room temperature. Readings were performed on a Pherastar Plus (BMG Labtech). λ Excitation 540 nm; Emission 590 nm.
A general note: Fluorescence polarisation rises when a labelled molecule tumbles more slowly, as on binding a larger partner.

In data set [4] the test system is P-glycoprotein (MDR1), human. As to the kind of experiment: MDR1-MDCK flux assay. The note with it: dog; for Papp A→B: value in brackets. It counts as in vitro ADME. The text has this:
The treatment of CNS disorders, including Alzheimer's disease, Parkinson's disease, and other disorders described herein, requires drug molecules to target the brain, which requires adequate penetration of the blood brain barrier. […] The probability that a compound can cross the blood brain barrier may be measured by an in vitro flux assay utilizing a MDR1-MDCK cell monolayer (Madin-Darby Canine Kidney cells transfected with MDR-1 resulting in overexpression of the human efflux transporter P-glycoprotein). Additionally, exposure may also be measured directly in brain and plasma using in vivo animal models.
MDR1-MDCK (Madin-Darby Canine Kidney cell monolayer) (in vitro) flux assay. Cell TE WB: USP30 endogenous cellular target engagement western blot (WB) assay. Assays the activity of compounds against USP30 in cells using an irreversible activity probe to monitor USP30 activity. TE ex vivo: USP30 kidney tissue target engagement assay. Kp u,u is the ratio of unbound drug in brain to unbound drug in plasma and may be indicative of potential for treating peripheral and/or CNS indications.

In data set [5] the test system is HCT116 human colorectal carcinoma cells. As to the kind of experiment: In vitro cytotoxicity (Cell Tox), alamarBlue. In kind it is cell-based. The note with it: HCT-116, 96-hour continual compound exposure. The method, then: In Vitro Cytotoxicity (Cell Tox): Measured in HCT116 human colorectal carcinoma cells using alamarBlue™ as the assay endpoint. Compound cytotoxicity was measured over a period of 96-hour continual compound exposure.
A general note: The colour change of resazurin is a common sign of viable cells or microbes.

pEC50, pIC50: −log10 of the molar value.

By IC50 is commonly meant the concentration that gives 50% inhibition. Usually solubility stands for the concentration that dissolves in the medium under given conditions. High values mean a readily soluble substance, low ones a poorly soluble substance. A word on the pIC50: it is −log10 of the IC50, conventionally taken in molar units. As usually defined, the efflux ratio is the permeability from basolateral to apical divided by that in the opposite direction, in the common usage. The term Papp A→B denotes how fast a substance crosses the layer from the apical side. In general, pEC50 refers to the EC50 on a negative log10 scale, so that one unit is a factor of ten. Read a low pEC50 as a high EC50. Consider `COC[C@@H]1C[C@@H](NC(=O)c2ncc(-c3cccc(OC(F)(F)F)c3)o2)CN1C#N` [Example 1, N-((3R,5S)-1-Cyano-5-(methoxymethyl)pyrrolidin-3-yl)-5-(3-(trifluoromethoxy)phenyl)oxazole-2-carboxamide], for which, in data set [1], the fraction unbound turned out to be 0.06. The half-life in “Mouse plasma stability” was determined as 11 h. In data set [2], this molecule yielded an IC50 of 4.4 to 71.9 µM. In [3], the “DUB selectivity preference for USP30 v 7 DUBs” value is on record as 880-14380. For the same molecule, the “Hepatocyte Cl mouse scaled Clu” value in the data set on hepatocyte came to 84.7 mL/min/kg. This molecule yielded a solubility in “Turbidimetric solubility” of over 100 µM. Also, inhibition on Cathepsin K was half-maximal at 16.5 µM (IC50). Moreover, at USP30, the “fold more potent against USP30 than Reference Example A” value worked out at 14 fold, the “fold more potent against USP30 than Reference Example B” value is listed as 34 fold, the “fold more potent against USP30 than Reference Example C” value is recorded as 62 fold and the “fold more potent against USP30 than Reference Example D” value is given as 880 fold. Further, the pIC50 on USP30 is 8.30. In addition, in [4], the efflux ratio is 5.4 and the Papp A→B was determined as 18 ×10⁻⁶ cm/s. Moreover, in data set [5], the pEC50 is under 4.52.
Consider `C[C@@H]1C[C@@H](NC(=O)c2ncc(-c3cccc(OC(F)(F)F)c3)o2)CN1C#N` [Example 2, N-((3R,5R)-1-Cyano-5-methylpyrrolidin-3-yl)-5-(3-(trifluoromethoxy)phenyl)oxazole-2-carboxamide], for which, in [1], the fraction unbound is 0.05. Also, the half-life in “Mouse plasma stability” was 7 h. In [2], the half-maximal inhibitory concentration (IC50) was at least 4.7 µM. In addition, the “DUB selectivity preference for USP30 v 7 DUBs” value in [3] was 940->20000. Moreover, in the data set with hepatocyte, the “Hepatocyte Cl mouse scaled Clu” value turned out to be 130.6 mL/min/kg. This molecule came in with a solubility in the data set “Turbidimetric solubility” of over 100 µM. Besides, the IC50 on Cathepsin K worked out at 9.8 µM. Besides, at USP30, the “fold more potent against USP30 than Reference Example A” value came out at 14 fold, the “fold more potent against USP30 than Reference Example B” value is recorded as 34 fold, the “fold more potent against USP30 than Reference Example C” value was found to be 62 fold and the “fold more potent against USP30 than Reference Example D” value is given as 880 fold. In addition, at USP30, the pIC50 is 8.30. Further, in data set [4], the efflux ratio was 1.9 and the Papp A→B was 12 ×10⁻⁶ cm/s. Also, the pEC50 in [5] was 4.62.
